In general, EC50 refers to the concentration that produces a half-maximal response. A word on the share remaining: it is the share of the starting amount still present when the sample was taken.

The text below walks through data of US10414811B2, “Protease-resistant lipidated GLP-1 analogs” (MEDIMMUNE LIMITED, priority 2015, dated 2019).

SMILES strings stand for the structures. Read-outs that look alike come from different tables or passages of the source. Numbered stars: 1 amine (or outer) side, 2 acyl side, 3 side chain; on linkers, the order of the positions; unused ones are H or OH. Square brackets hold non-standard residues; d marks the D form. Side chains are listed from the residue outwards. Peptide text beside a SMILES is read from it. * marks the point of attachment. γGlu = O=C(O)[C@H](CCC(=O)[*:2])N[*:1]; αMeF = C[C@](N)(Cc1ccccc1)C(=O)O; αMeK = C[C@](N)(CCCCN)C(=O)O; Lauroyl = CCCCCCCCCCCC(=O)*; αMeS = C[C@](N)(CO)C(=O)O; AEEA = NCCOCCOCC(=O)O; Aib = CC(C)(N)C(=O)O

The target in one series is T1, Neprilysin (Homo sapiens, UniProt P08473).
T1 construct: purchased R&D Systems 1182-ZNC-010
T1 sequence (P08473 whole entry): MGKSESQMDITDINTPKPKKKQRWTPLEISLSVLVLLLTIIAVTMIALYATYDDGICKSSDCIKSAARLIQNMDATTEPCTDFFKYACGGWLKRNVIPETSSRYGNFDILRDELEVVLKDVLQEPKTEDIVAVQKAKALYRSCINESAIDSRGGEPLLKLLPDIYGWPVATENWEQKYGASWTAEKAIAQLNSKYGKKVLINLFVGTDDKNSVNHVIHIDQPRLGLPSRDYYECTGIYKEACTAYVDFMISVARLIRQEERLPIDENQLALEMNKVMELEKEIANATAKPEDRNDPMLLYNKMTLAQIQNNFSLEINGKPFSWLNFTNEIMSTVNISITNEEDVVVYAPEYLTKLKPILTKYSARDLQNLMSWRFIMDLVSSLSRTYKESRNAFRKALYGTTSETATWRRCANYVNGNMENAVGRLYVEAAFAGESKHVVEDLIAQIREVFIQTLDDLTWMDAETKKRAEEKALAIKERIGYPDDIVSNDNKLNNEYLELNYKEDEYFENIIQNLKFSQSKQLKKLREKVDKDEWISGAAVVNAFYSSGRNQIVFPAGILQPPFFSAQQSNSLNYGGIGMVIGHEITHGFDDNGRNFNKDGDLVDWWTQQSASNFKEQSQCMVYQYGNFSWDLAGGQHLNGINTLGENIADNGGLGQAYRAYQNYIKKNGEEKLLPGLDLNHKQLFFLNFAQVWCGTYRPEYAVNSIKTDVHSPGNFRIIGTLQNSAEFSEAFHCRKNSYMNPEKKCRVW
The series is described as follows: Proteolytic resistance to neprilysin (% remaining peptide, RP-HPLC AUC). The class given is in vitro ADME. Conditions: 37° C., pH 8.3.

Another series concerns the target T2, GLP-1R (INS1e assay) (Rattus norvegicus, UniProt P32301).
T2 construct: endogenous in cells; host or cells: INS-1E cells
T2 sequence (P32301 22-463): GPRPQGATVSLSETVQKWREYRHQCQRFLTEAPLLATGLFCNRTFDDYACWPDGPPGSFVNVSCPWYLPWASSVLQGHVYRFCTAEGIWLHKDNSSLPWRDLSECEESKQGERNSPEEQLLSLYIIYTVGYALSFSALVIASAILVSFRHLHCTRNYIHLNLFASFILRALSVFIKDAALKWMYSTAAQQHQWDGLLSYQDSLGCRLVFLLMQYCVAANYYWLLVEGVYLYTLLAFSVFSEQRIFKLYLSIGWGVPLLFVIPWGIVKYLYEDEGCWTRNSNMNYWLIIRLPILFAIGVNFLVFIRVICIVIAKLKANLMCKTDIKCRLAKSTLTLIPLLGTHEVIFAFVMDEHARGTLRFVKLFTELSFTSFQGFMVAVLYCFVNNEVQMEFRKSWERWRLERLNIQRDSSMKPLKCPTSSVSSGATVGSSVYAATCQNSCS
Nature of the series: INS1e assay, cAMP activity at GLP-1R. The class given is cell-based. The method, boiled down:
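It pairs cAMP-d2 acceptor with anti-cAMP cryptate donor, both prepared 1/20 in conjugate/lysis buffer, applied as a two-step protocol.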

The target of series [1] is T3, human glucagon receptor (GCGR) (Homo sapiens, UniProt P47871).
T3 construct: expressed in transfected cells
T3 sequence (P47871 26-477): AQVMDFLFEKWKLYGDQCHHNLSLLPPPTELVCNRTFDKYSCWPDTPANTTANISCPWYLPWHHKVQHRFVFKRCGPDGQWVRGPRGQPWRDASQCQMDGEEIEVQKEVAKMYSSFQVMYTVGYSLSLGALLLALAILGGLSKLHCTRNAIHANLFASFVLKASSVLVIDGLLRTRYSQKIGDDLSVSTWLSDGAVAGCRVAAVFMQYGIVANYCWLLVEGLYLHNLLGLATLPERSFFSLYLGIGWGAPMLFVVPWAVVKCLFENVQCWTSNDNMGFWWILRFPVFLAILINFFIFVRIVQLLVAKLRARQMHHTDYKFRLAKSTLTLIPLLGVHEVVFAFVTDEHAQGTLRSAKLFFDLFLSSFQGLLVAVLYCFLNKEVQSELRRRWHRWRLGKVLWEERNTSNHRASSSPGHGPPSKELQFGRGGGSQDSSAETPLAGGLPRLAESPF
The series is described as follows: cAMP assay, human GCGR cells. The class given is cell-based. As to conditions: cAMP assay. The method, boiled down:
(§1)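 Peptide-stimulated cAMP measured by two-step HTRF after a 30 min room-temperature incubation with receptor-expressing cells (hGLP-1R, hGIPR at 1×10^5 cells/ml; hGCGR at 2×10^5 cells/ml). Duplicate dilutions; EC50 from 4-parameter logistic fit of % Delta F.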

For series [2], the target named is T4, human glucose-dependent insulinotropic peptide receptor (GIPR) (Homo sapiens, UniProt P48546).
T4 construct: expressed in transfected cells
T4 sequence (P48546 22-466): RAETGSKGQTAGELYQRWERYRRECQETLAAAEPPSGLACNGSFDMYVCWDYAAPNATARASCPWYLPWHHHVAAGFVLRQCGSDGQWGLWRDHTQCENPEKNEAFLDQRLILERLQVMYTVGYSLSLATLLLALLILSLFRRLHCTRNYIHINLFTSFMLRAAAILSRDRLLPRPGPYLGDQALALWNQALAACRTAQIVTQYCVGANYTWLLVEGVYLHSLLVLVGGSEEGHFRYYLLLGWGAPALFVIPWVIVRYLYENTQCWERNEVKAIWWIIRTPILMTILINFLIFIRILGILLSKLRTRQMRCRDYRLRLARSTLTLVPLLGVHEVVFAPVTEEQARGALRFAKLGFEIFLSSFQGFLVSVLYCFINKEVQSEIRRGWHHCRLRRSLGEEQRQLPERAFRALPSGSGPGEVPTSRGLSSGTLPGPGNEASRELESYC
Nature of the series: cAMP assay, human GIPR cells. The class given is cell-based. Conditions: cAMP assay. The method, boiled down:
as §1
Background: cAMP levels reflect the balance of adenylyl cyclase and phosphodiesterase activity.

A further series has as its target T5, pepsin (Sus scrofa, UniProt P00791).
T5 construct: purchased Sigma P7012
The series is described as follows: Proteolytic resistance to pepsin (% remaining intact peptide, RP-HPLC AUC). The class given is in vitro ADME. As to conditions: pig, porcine pepsin, 37° C., pH 2.0, read-out: Percentage remaining intact peptide (AUC by RP-HPLC) upon incubation with pepsin. As to the method: Lyophilized porcine […] pepsin (Sigma: P7012) was reconstituted to afford a solution of 200 μg/mL (˜500 units/mL) in assay buffer (0.1 M HCl, pH 2.0) to give the enzyme stock solution. […] Ratio enzyme (units):peptide (μmoles)˜1:6. […] Ratio enzyme (units):peptide (μmoles)˜2:1.
Lyophilized porcine […] pepsin (Sigma: P7012) was reconstituted to 200 μg/mL (˜500 units/mL) in assay buffer (1.0 M HCl, pH 2.0) to give the enzyme stock solution.

For series [3], the target named is T6, human GLP-1 receptor (GLP-1R) (Homo sapiens, UniProt P43220).
T6 construct: expressed in transfected cells
T6 sequence (P43220 24-463): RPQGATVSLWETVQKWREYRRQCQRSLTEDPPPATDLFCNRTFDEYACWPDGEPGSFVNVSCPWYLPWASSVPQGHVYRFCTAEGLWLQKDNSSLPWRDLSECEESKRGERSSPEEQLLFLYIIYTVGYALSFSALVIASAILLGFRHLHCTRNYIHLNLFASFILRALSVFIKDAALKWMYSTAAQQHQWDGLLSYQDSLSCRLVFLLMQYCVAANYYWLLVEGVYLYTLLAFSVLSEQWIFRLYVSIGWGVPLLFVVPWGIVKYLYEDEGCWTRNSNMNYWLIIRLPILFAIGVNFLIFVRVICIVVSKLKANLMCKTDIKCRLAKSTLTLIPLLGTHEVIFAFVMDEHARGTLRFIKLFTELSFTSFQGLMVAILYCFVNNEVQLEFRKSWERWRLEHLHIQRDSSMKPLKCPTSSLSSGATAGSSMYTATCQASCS
Nature of the series: cAMP assay, human GLP-1R cells. As to conditions: bis-lipidated peptides. The class given is cell-based. A digest of the protocol:
as §1

The next series addresses T7, trypsin (Sus scrofa, UniProt P00761).
T7 construct: purchased Sigma T7409
The series is described as follows: Proteolytic resistance to trypsin (% remaining intact peptide, RP-HPLC AUC). The class given is in vitro ADME. Conditions: pig, porcine pancreatic trypsin, 37° C., pH 7.8, read-out: Percentage remaining intact peptide (AUC by RP-HPLC) upon incubation with trypsin. From the text:
Ratio enzyme (units):peptide (μmoles)˜1:11. […] Ratio enzyme (units):peptide (μmoles)˜1.2:1.

T5 sequence (P00791 60-385): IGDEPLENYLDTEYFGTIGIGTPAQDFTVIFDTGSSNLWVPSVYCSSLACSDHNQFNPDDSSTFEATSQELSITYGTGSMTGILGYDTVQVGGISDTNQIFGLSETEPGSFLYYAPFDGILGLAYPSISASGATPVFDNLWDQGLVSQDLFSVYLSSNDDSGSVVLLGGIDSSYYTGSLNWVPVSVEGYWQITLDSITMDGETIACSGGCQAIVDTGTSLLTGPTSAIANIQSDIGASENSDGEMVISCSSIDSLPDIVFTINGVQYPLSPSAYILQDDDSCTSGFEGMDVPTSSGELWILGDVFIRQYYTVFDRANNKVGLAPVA
T7 sequence (P00761 9-231): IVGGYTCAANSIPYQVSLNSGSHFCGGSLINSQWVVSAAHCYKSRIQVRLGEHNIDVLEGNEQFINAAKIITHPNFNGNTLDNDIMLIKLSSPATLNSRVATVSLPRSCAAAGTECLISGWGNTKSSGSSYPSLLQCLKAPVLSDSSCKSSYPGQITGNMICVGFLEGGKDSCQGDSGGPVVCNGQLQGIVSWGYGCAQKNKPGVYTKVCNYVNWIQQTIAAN

In the case of `CC[C@H](C)[C@H](NC(=O)[C@](C)(Cc1ccccc1)NC(=O)[C@H](CCC(=O)O)NC(=O)[C@](C)(CCCCN)NC(=O)[C@H](C)NC(=O)[C@H](C)NC(=O)[C@H](CCC(=O)O)NC(=O)CNC(=O)[C@H](CCC(=O)O)NC(=O)[C@H](CC(C)C)NC(=O)[C@](C)(Cc1ccccc1)NC(=O)[C@H](CO)NC(=O)[C@](C)(CO)NC(=O)[C@@H](NC(=O)[C@H](CC(=O)O)NC(=O)[C@H](CO)NC(=O)[C@@H](NC(=O)[C@](C)(Cc1ccccc1)NC(=O)[C@H](CO)NC(=O)CNC(=O)[C@H](CCC(=O)O)NC(=O)C(C)(C)NC(=O)[C@@H](N)Cc1c[nH]cn1)[C@@H](C)O)C(C)C)C(=O)N[C@@H](C)C(=O)N[C@@](C)(Cc1ccccc1)C(=O)N[C@H](C(=O)N[C@H](C(=O)N[C@@](C)(CCCCN)C(=O)NCC(=O)NCC(N)=O)C(C)C)C(C)C` [compound 17], the “Percentage remaining peptide (AUC at specified time-point by RP-HPLC) upon incubation with neprilysin, t = 0” value on Neprilysin amounted to 100%. The EC50 at GLP-1R (INS1e assay) (mono-lipidated peptides, mean of n1 and n2, read-out: INS1e assay EC50 Mean pM GLP-1R) was 6 pM; at GLP-1R (INS1e assay) (mono-lipidated peptides, replicate n1, read-out: INS1e assay EC50 GLP-1R n1), 5.1 pM; at GLP-1R (INS1e assay) (mono-lipidated peptides, replicate n2, read-out: INS1e assay EC50 GLP-1R n2) it was 7.87 pM; in series [1] (first determination (n1), read-out: Primary assay EC50 Gluc-R (n1)), at least 31 nM; in series [1] (second determination (n2), read-out: Primary assay EC50 Gluc-R (n2)), at least 31 nM; in series [2] (first determination (n1), read-out: Primary assay EC50 GIP-R (n1)), at least 31 nM. Moreover, in series [2] (second determination (n2), read-out: Primary assay EC50 GIP-R (n2)), the EC50 was at least 31 nM.
Consider `CCCCCCCCCCCC(=O)N[C@@H](CCC(=O)NCCOCCOCC(=O)NCCOCCOCC(=O)NCCCC[C@H](NC(=O)[C@H](C)NC(=O)[C@@H](NC(=O)[C@H](Cc1ccccc1)NC(=O)[C@H](CCC(=O)O)NC(=O)[C@](C)(CCCCN)NC(=O)[C@H](C)NC(=O)[C@H](C)NC(=O)[C@H](CCC(=O)O)NC(=O)CNC(=O)[C@H](CCC(=O)O)NC(=O)[C@H](CCCCNC(=O)COCCOCCNC(=O)COCCOCCNC(=O)CC[C@H](NC(=O)CCCCCCCCCCC)C(=O)O)NC(=O)[C@H](Cc1ccc(O)cc1)NC(=O)[C@H](CO)NC(=O)[C@](C)(CO)NC(=O)[C@@H](NC(=O)[C@H](CC(=O)O)NC(=O)[C@H](CO)NC(=O)[C@@H](NC(=O)[C@](C)(Cc1ccccc1)NC(=O)[C@H](CO)NC(=O)CNC(=O)[C@H](CCC(=O)O)NC(=O)C(C)(C)NC(=O)[C@@H](N)Cc1c[nH]cn1)[C@@H](C)O)C(C)C)[C@@H](C)CC)C(=O)N[C@H](C(=O)N[C@H](C(=O)N[C@@H](CCC(=O)O)C(=O)NCC(=O)NCC(N)=O)C(C)C)C(C)C)C(=O)O` [compound 269] (H-H[Aib]EGS[αMeF]TSDV[αMeS]SYK([AEEA-AEEA-γGlu-Lauroyl])EGEAA[αMeK]EFIAK([AEEA-AEEA-γGlu-Lauroyl])VVEGG-NH2), for which the share remaining at 0.5 h on Neprilysin (recombinant neprilysin, t = 30 min) stood at 95.7%; at pepsin (t = 30 min) it was 74.9%; on trypsin (t = 30 min), 96.8%. Moreover, the amount remaining at 1 h was 92.8% on Neprilysin (recombinant neprilysin, t = 1 hr); 55.8% on pepsin (t = 1 hr); 95.2% on trypsin (t = 1 hr). The fraction remaining at 4 h at Neprilysin (recombinant neprilysin, t = 4 hr) worked out at 95.3%; at pepsin (t = 4 hr) it was 22.4%; at trypsin (t = 4 hr), 85.2%. Also, the fraction remaining at 8 h stood at 89.7% on Neprilysin (recombinant neprilysin, t = 8 hr); 13.4% on pepsin (t = 8 hr); 82.9% on trypsin (t = 8 hr). The fraction remaining at 24 h worked out at 89.3% on Neprilysin (recombinant neprilysin, t = 24 hr, read-out: Percentage remaining peptide (AUC at specified time-point by RP-HPLC) upon incubation with neprilysin, t = 24 hr); 0% on pepsin (t = 24 hr); 74.7% on trypsin (t = 24 hr). Moreover, the “Percentage remaining peptide (AUC at specified time-point by RP-HPLC) upon incubation with neprilysin, t = 0” value at Neprilysin worked out at 100%. Moreover, the EC50 was found to be 212 pM at GLP-1R (INS1e assay) (bis-lipidated peptides, mean of n1 and n2, read-out: INS1e assay EC50 Mean pM GLP-1R); 243 pM on GLP-1R (INS1e assay) (bis-lipidated peptides, replicate n1, read-out: INS1e assay EC50 GLP-1R n1); 181 pM at GLP-1R (INS1e assay) (bis-lipidated peptides, replicate n2, read-out: INS1e assay EC50 GLP-1R n2); 4.6 pM in series [3] (mean of n1 and n2, read-out: Primary assay EC50 Mean pM GLP-1R); 4.01 pM in series [3] (replicate n1, read-out: Primary assay EC50 GLP-1R n1); 5.24 pM in series [3] (replicate n2, read-out: Primary assay EC50 GLP-1R n2). Also, the figures for the share remaining at 2 h at pepsin (t = 2 hr) and on trypsin (t = 2 hr) were 38.6% and 89.9%, respectively.
